Here are results for two molecules from US6939869B2, “Pyrrolo[2,1-c][1,4] benzodiazepine-indole derivatives, their preparation process, and uses of the same” (Kaohsiung Medical University, priority 2002, dated 2005).

In assay [1] the test system is EKVX (non-small cell lung cancer). The assay is described as follows: NCI in vitro anticancer assay, growth inhibition, EKVX. Type of assay: cell-based. The note with it: Homo sapiens, read-out: GI50 (concentration causing 50% cell growth inhibition). An excerpt:
(§1) The tested human tumor cell lines are as follows: (1) CCRF-CEM, K-562, MOLT-4 and SR of leukemia; (2) A549/ATCC, EKVX, HOP-62, HOP-92, NCI-H226, NCI-H23, NCI-H322M, NCI-H460a and NCI-H522 of non-small cell lung cancer; (3) COLO 205, HCC-2998, HCT-116, HCT-15, HT29, KM12 and SW-620 of colon cancer; (4) SF-268, SF-295, SF-539, SNB-19, SNB-75 and U251 of CNS cancer; (5) LOX IMVI, MALME-3M, M14, SK-MEL-2, SK-MEL-28, SK-MEL-5, UACC-257 and UACC-62 of melanoma; (6) IGROV1, OVCAR-3, OVCAR-4, OVCAR-5, OVCAR-8 and SK-OV-3 of ovarian cancer; (7) 786-0, A498, ACHN, CAKI-1, RXF 393, SN12C, TK-10 and UO-31 of renal cancer; (8) […] and DU-145 of prostate cancer; and (9) MCF7, MCF7/ADR-RES, MDA-MB-231/ATCC, HS 578T, MDA-MB-435, MDA-N, BT-549 and T-47D of breast cancer.
(§2) For each compound, the dose-response curves for each tested tumor cell line were measured with five different dose concentrations, and the concentration causing 50% cell growth inhibition (GI50) compared with the control was calculated.

For assay [2], the system named is NCI-H522 (non-small cell lung cancer). The assay is described as follows: NCI in vitro anticancer assay, growth inhibition, NCI-H522. Type of assay: cell-based. The following applies: Homo sapiens, read-out: GI50 (concentration causing 50% cell growth inhibition).
Excerpt: as §1, §2

A further assay relates to COLO 205 (colon cancer). The assay is described as follows: NCI in vitro anticancer assay, growth inhibition, COLO 205. The assay is classed as cell-based. The following applies: Homo sapiens, read-out: GI50 (concentration causing 50% cell growth inhibition).
Excerpt: as §1, §2

Another assay deals with HT29 (colon cancer). The assay is described as follows: NCI in vitro anticancer assay, growth inhibition, HT29. Type of assay: cell-based. The note with it: Homo sapiens, HT-29, read-out: GI50 (concentration causing 50% cell growth inhibition).
Excerpt: as §1, §2

Another assay deals with SF-268 (CNS cancer). The experiment in a line: NCI in vitro anticancer assay, growth inhibition, SF-268. Type of assay: cell-based. The following applies: Homo sapiens, read-out: GI50 (concentration causing 50% cell growth inhibition).
Excerpt: as §1, §2

The test system of a further assay is U251 (CNS cancer). The assay is described as follows: NCI in vitro anticancer assay, growth inhibition, U251. The assay is classed as cell-based. The following applies: Homo sapiens, U-251, read-out: GI50 (concentration causing 50% cell growth inhibition).
Excerpt: as §1, §2

For the next assay, the system named is RXF 393 (renal cancer). The experiment in a line: NCI in vitro anticancer assay, growth inhibition, RXF 393. Type of assay: cell-based. The note with it: Homo sapiens, read-out: GI50 (concentration causing 50% cell growth inhibition).
Excerpt: as §1, §2

A further assay deals with SN12C (renal cancer). The experiment in a line: NCI in vitro anticancer assay, growth inhibition, SN12C. The assay is classed as cell-based. The following applies: Homo sapiens, read-out: GI50 (concentration causing 50% cell growth inhibition).
Excerpt: as §1, §2

Assay [3] in a line: In vivo hollow fiber assay (NCI). The following applies: intraperitoneal (IP) and subcutaneous (SC) samples, total score of 20 or more considered active. Here is the method: The compounds obtained from the above Synthesis Ex. 1 and Synthesis Ex. 2 were further examined in an in vivo hollow fiber assay conducted by the National Cancer Institute (NCI) in the United States, in which an intraperitoneal (IP) sample and a subcutaneous (SC) sample were tested. In this assay, if a tested compound is observed to have a total score of IP score and SC score […]20, it will be considered to be active and to have the potential as an anti-tumor/anti-cancer drug candidate. According to the confidential report of the Developmental Therapeutics Program issued by NCI on Apr.

For assay [4], the system named is 60 human tumor cell lines. The assay is described as follows: NCI in vitro anticancer assay, mean over 60 cell lines. The assay is classed as cell-based. The note with it: mean values over 60 cell lines tested.
Excerpt: as §1, §2
Table 1 summarizes the respective GI50 values and mean GI50 values for the tested compounds in relation to all the 60 tumor cell lines.

Where only a bound is given, the exact number is not on record here.

For the molecule `COc1cc2c(cc1OCCCNC(=O)c1cc3ccccc3[nH]1)N=C[C@@H]1CCCN1C2=O` [Synthesis Ex. 2], the GI50 in [1] turned out to be 604 nM; in assay [2] it was 14.1 nM; in the assay on COLO 205 (colon cancer) it was 118 nM; in the assay on HT29 (colon cancer), 274 nM; in the assay with SF-268 (CNS cancer), 27 nM; with U251 (CNS cancer), 39.4 nM. Also, the GI50 amounted to 25 nM in the assay on RXF 393 (renal cancer) and 410 nM in the assay on SN12C (renal cancer). Also, the “total score of IP score and SC score” value in assay [3] is listed as 30.

On to `COc1cc2c(cc1OC(=O)c1cc3ccccc3[nH]1)N=C[C@@H]1CCCN1C2=O` [Synthesis Ex. 1], for which the GI50 in assay [1] worked out at 674 nM; in [2], 198 nM; in the assay on COLO 205 (colon cancer), 196 nM; with HT29 (colon cancer) it was 185 nM; with SF-268 (CNS cancer), 669 nM; in the assay with U251 (CNS cancer), 302 nM. Moreover, the GI50 was 155 nM in the assay with RXF 393 (renal cancer); 210 nM in the assay on SN12C (renal cancer); ≤ 380 nM in [4] (Homo sapiens, 60 cell); 380 nM in [4]. Moreover, the “total score of IP score and SC score” value in [3] was found to be 22.
